Test results: patent US12281304B2, “Compositions and methods for treating and preventing muscular disorders and dystrophies, steroid side effects, and inflammation” (Children's National Medical Center, priority 2018, dated 2025)

Test system: miRNAs in diaphragm muscle of mdx mice
Experiment: TaqMan low-density array (TLDA) miRNA profiling of diaphragm, discovery set (prophylactic mdx trial)
Format: in vivo, mouse
Source text: Archival muscle samples (diaphragm) from two separate preclinical studies were obtained, with each trial showing a significant benefit from both prednisolone and vamorolone drug treatments (23). Prednisolone was used because it is the active form of prednisone, the current DMD standard of care. The first, “discovery set” of diaphragm muscles was from a prophylactic trial design where 2-week old (postnatal day 15) mdx or wild type control mice received oral dosing for 6 weeks with vehicle (cherry syrup), prednisolone (5 mg/kg), or vamorolone (15 mg/kg) as previously reported (23). The second, “validation set” of diaphragm muscles was from an extended trial in older mice where mdx or wild type mice were subjected to treadmill running to unmask mild phenotypes. Mice in this validation set were treated with either vehicle, prednisolone (5 mg/kg) or vamorolone (45 mg/kg) for four months beginning at two months of age (23). At the endpoint of each trial, diaphragm muscles were harvested and frozen in liquid nitrogen-cooled isopentane.
We extracted total RNA from 5 diaphragm muscles per treatment group in the discovery set of samples from 8-week old mice. RNA was extracted using a modified TRIzol protocol with isopropanol precipitation at −20° C. overnight. This RNA was reverse transcribed to cDNA using a High Capacity cDNA Reverse Transcription Kit with RNase Inhibitor (ThermoFisher; Carlsbad, Calif.), with miRNA-specific Megaplex RT Primers, Rodent Pools Set version 3.0 (ThermoFisher; Carlsbad, Calif.). Levels of each of the miRNAs were profiled in the discovery set using TAQMAN Array Rodent MiRNA A+B Cards Set v3.0 (ThermoFisher; Carlsbad, Calif.).
In the discovery set experiments, levels of each miRNA were quantified in TaqMan low-density arrays using ThermoFisher Cloud software with the Relative Quantification Application (ThermoFisher; Carlsbad, Calif.) tool. Data was analyzed by ANOVA with post-hoc comparison of each group to the mdx vehicle-treated group. […] A P-value of P≤0.05 was set as the significance threshold, without adjustment for multiple comparisons. To reduce false-positive discovery in this setting, an evidence-based approach was used to identify efficacy associated miRNAs where 1) results from the multiple groups were cross-referenced, and 2) all candidate miRNAs identified in this discovery set were then assayed in a separate validation set of mice. For the validation set experiments, levels of each individual miRNA were assayed in samples from a second, independent preclinical trial in adult mdx mice. Data from individual TaqMan Assays was quantified using QuantStudio Real-Time PCR version 1.3 software (Applied Biosystems; Foster City, Calif.). The levels of all miRNAs were normalized to the geometric mean of multiple control genes (60, 70). Comparison of groups was made by ANOVA with Holm-Sidak post-hoc test comparing each group to mdx vehicle.
To visualize behavior of miRNAs within individual mice for each group, heat map images were generated. Heat maps were generated using Rq values of TLDA array data exported from the Relative Quantification Application of the ThermoFisher Cloud software (ThermoFisher; Carlsbad, Calif.) tool. Heat maps of miRNA expression were produced using Hierarchical Clustering Explorer Version 3.5 (at www.cs.umd.edu/hcil/multi-cluster/) produced by the Human Computer Interaction Laboratory (University of Maryland; College Park, Md.).
To examine miRNA expression TaqMan low density qPCR array cards were used to profile approximately 750 miRNAs within diaphragm muscle from a discovery set of mice. Samples for this experiment came from a trial that utilized a prophylactic approach (23). Briefly, mdx mice undergo a stage of peak severity characterized by widespread inflammation and necrosis from approximately 3-8 weeks of age, followed by a recovery stage where mice show milder phenotypes (25). […]

[1] = discovery set diaphragm muscle, mdx mice, Pred 5 mg/kg, Vam 15 mg/kg
[2] = mdx diaphragm, vs untreated mdx, Pred 5 mg/kg, Vam 15 mg/kg

C[C@]12C=CC(=O)C=C1CC[C@@H]1[C@@H]2[C@@H](O)C[C@@]2(C)[C@H]1CC[C@]2(O)C(=O)CO [prednisolone]
miRNA 142-3p % expression in comparison to mdx vehicle [1]: 50 ± 13 % | miRNA 142-5p % expression in comparison to mdx vehicle [1]: 44 ± 11 % | miRNA 146a % expression in comparison to mdx vehicle [1]: 39 ± 6 % | miRNA 301a % expression in comparison to mdx vehicle [1]: 70 ± 18 % | miRNA 324-3p % expression in comparison to mdx vehicle [1]: 71 ± 14 % | miRNA 455-3p % expression in comparison to mdx vehicle [1]: 62 ± 18 % | miRNA 455-5p % expression in comparison to mdx vehicle [1]: 64 ± 30 % | miRNA 497 % expression in comparison to mdx vehicle [1]: 49 ± 11 % | miRNA 652 % expression in comparison to mdx vehicle [1]: 62 ± 14 % | number of miRNAs significantly changed in dystrophic muscle (mdx diaphragm, 8-week-old mice, oral dosing 6 weeks, prednisolone 5 mg/kg, vamorolone 15 mg/kg, versus untreated mdx, P≤0.05): 76 | expression of 14q32 (mouse 12F1) cluster miRNAs miR-134, miR-370, miR-409, miR-433, miR-493, miR-543 (mdx diaphragm, discovery set, prednisolone 5 mg/kg): specifically activated | number of miRNAs significantly increased by treatment (mdx diaphragm, discovery set, prednisolone 5 mg/kg, vamorolone 15 mg/kg, P≤0.05): 9 | expression of the nine efficacy-associated miRNAs elevated in dystrophy (mdx diaphragm, discovery set, versus mdx vehicle): returned towards healthy wild type levels | Rq hsa-let-7i#-002172 [2]: 0.714 | Rq hsa-miR-30e-3p-000422 [2]: 0.739 | Rq hsa-miR-22#-002301 [2]: 0.641 | Rq hsa-miR-140-3p-002234 [2]: 0.681 | Rq hsa-miR-143-000466 [2]: 1.096 | Rq hsa-miR-154#-000478 [2]: 1.585 | Rq hsa-miR-190b-002263 [2]: 0.547 | Rq hsa-miR-200c-000505 [2]: 0.486 | Rq hsa-miR-206-000510 [2]: 1.017 | Rq hsa-miR-213-000516 [2]: 0.622 | Rq hsa-miR-214#-002293 [2]: 0.82 | Rq hsa-miR-214-000517 [2]: 0.767 | Rq hsa-miR-376a#-001287 [2]: 0.978 | Rq hsa-miR-455-001280 [2]: 0.6 | Rq hsa-miR-744#-002325 [2]: 0.537 | Rq mmu-let-7e-002406 [2]: 0.66 | Rq mmu-let-7a-000377 [2]: 0.491 | Rq mmu-let-7b-000378 [2]: 0.655 | Rq mmu-let-7c-1#-002479 [2]: 1.427 | Rq mmu-let-7c-000379 [2]: 0.651 | Rq mmu-let-7i-002221 [2]: 0.775 | Rq mmu-let-7d#-001178 [2]: 0.556 | Rq mmu-let-7d-002283 [2]: 0.714 | Rq mmu-miR-1-002222 [2]: 0.868 | Rq mmu-miR-15a-000389 [2]: 0.635 | Rq mmu-miR-16-000391 [2]: 0.663 | Rq mmu-miR-18a-002422 [2]: 1.284 | Rq mmu-miR-19a-000395 [2]: 0.846 | Rq mmu-miR-20a#-002491 [2]: 0.771 | Rq mmu-miR-21#-002493 [2]: 0.707 | Rq mmu-miR-21-000397 [2]: 0.659 | Rq mmu-miR-23b-000400 [2]: 0.621 | Rq mmu-miR-25-000403 [2]: 0.75 | Rq mmu-miR-26a-000405 [2]: 0.7 | Rq mmu-miR-27b-000409 [2]: 0.796 | Rq mmu-miR-28-000411 [2]: 0.759 | Rq mmu-miR-30e-002223 [2]: 0.785 | Rq mmu-miR-30a-000417 [2]: 0.756 | Rq mmu-miR-30b-000602 [2]: 0.785 | Rq mmu-miR-30c-000419 [2]: 0.739 | Rq mmu-miR-31#-002495 [2]: 0.955 | Rq mmu-miR-31-000185 [2]: 1.028 | Rq mmu-miR-34a-000426 [2]: 0.712 | Rq mmu-miR-34b-3p-002618 [2]: 0.607 | Rq mmu-miR-34c#-002584 [2]: 0.623 | Rq mmu-miR-34c-000428 [2]: 0.655 | Rq mmu-miR-99b-000436 [2]: 0.783 | Rq mmu-miR-100-000437 [2]: 0.586 | Rq mmu-miR-103-000439 [2]: 0.679 | Rq mmu-miR-122-002245 [2]: 0.241 | Rq mmu-miR-125a-3p-002199 [2]: 0.666 | Rq mmu-miR-125b#-002508 [2]: 0.453 | Rq mmu-miR-125b-3p-002378 [2]: 0.561 | Rq mmu-miR-125b-5p-000449 [2]: 0.676 | Rq mmu-miR-126-3p-002228 [2]: 0.697 | Rq mmu-miR-126-5p-000451 [2]: 0.682 | Rq mmu-miR-127-000452 [2]: 1.382 | Rq mmu-miR-128a-002216 [2]: 0.871 | Rq mmu-miR-130a-000454 [2]: 0.758 | Rq mmu-miR-130b#-002460 [2]: 0.443 | Rq mmu-miR-130b-000456 [2]: 0.757 | Rq mmu-miR-133a-002246 [2]: 0.942 | Rq mmu-miR-134-001186 [2]: 1.922 | Rq mmu-miR-136-002511 [2]: 0.705 | Rq mmu-miR-138#-002554 [2]: 0.214 | Rq mmu-miR-140-001187 [2]: 0.775 | Rq mmu-miR-142-3p-000464 [2]: 0.485 | Rq mmu-miR-142-5p-002248 [2]: 0.438 | Rq mmu-miR-143-002249 [2]: 0.742 | Rq mmu-miR-145-002278 [2]: 0.694 | Rq mmu-miR-146a-000468 [2]: 0.397 | Rq mmu-miR-146b#-002453 [2]: 0.088 | Rq mmu-miR-146b-001097 [2]: 0.555 | Rq mmu-miR-148a-000470 [2]: 0.602 | Rq mmu-miR-148b-000471 [2]: 0.512 | Rq mmu-miR-150#-002570 [2]: 0.297 | Rq mmu-miR-150-000473 [2]: 0.516 | Rq mmu-miR-151-3p-001190 [2]: 0.877 | Rq mmu-miR-152-000475 [2]: 0.721 | Rq mmu-miR-154-000477 [2]: 0.606 | Rq mmu-miR-155-002571 [2]: 0.742 | Rq mmu-miR-181a-000480 [2]: 0.728 | Rq mmu-miR-181c-000482 [2]: 0.624 | Rq mmu-miR-185-002271 [2]: 0.818 | Rq mmu-miR-186-002285 [2]: 0.866 | Rq mmu-miR-191-002299 [2]: 0.771 | Rq mmu-miR-193#-002577 [2]: 0.799 | Rq mmu-miR-195-000494 [2]: 0.491 | Rq mmu-miR-199a-3p-002304 [2]: 0.844 | Rq mmu-miR-199b-001131 [2]: 0.771 | Rq mmu-miR-200c-002300 [2]: 0.508 | Rq mmu-miR-203-000507 [2]: 0.575 | Rq mmu-miR-204-000508 [2]: 0.722 | Rq mmu-miR-210-000512 [2]: 0.759
